Test system: cardiac cell potassium channels
Assay: potassium ion-selective optical ion sensor fluorescence assay of electrically paced cardiac myocyte cells (hERG screening)
Type: cell-based
Settings: 2.0 μM Haloperidol; myocyte cells paced at 1.0 Hz; FIG. 10D in comparison to FIG. 10B
Description: In one particular example, a cell assay system built in accordance with principles of the invention can be used to conduct hERG screening assays. The hERG gene regulates the activity of potassium ion channels in cardiac myocyte cells. In a functioning heart, electrical voltages are generated by modified myocytes in the sinoatrial and atrioventricular nodes (pacemaking nodes). Such voltages are propagated through the heart by the action of various voltage-gated ion channels that alter the voltage gradients across cardiac cell membranes by exchanging sodium, calcium, and potassium ions across the cell membrane. Various agents are known to interfere with the hERG gene, or otherwise block potassium channel operation, resulting in arrhythmia and potentially heart failure. […]
To test for potassium channel interference, cardiac myocyte cells are provided in a monolayer adhered to a biological sample holder. […] As potassium ions are passed into and out of the myocytes by potassium channels, the fluorescence of the potassium selective optical ion sensor varies in a detectable fashion.
FIGS. 10A and 10B are graphs charting the intensity of potassium ion-selective optical ion sensor fluorescence monitoring the activity of myocyte cells in a biological sample holder. […] The graph of FIG. 10A includes normalized raw fluorescence measurements, both observed and filtered. […]

O=C(CCCN1CCC(O)(c2ccc(Cl)cc2)CC1)c1ccc(F)cc1 [Haloperidol]
reduction of intensity of fluorescence oscillations at 1.0 Hz (change of extracellular potassium concentration per beat): 30%

From patent US8859225B2, “Systems and methods of voltage-gated ion channel assays” (The Charles Stark Draper Laboratory, Inc., priority 2006, dated 2014)
